Values quoted from earlier work as cited in patent US20140322314A1, “Omega-3 Fatty Acid Formulations for Use as Pharmaceutical Treatment” (Matinas BioPharma, Inc., priority 2013, published 2014).

Conditions: in vivo

bioavailable | absorbed at rates | SMILES
approximately 24% | – | CC(C)n1c(/C=C/C(O)CC(O)CC(=O)O)c(-c2ccc(F)cc2)c2ccccc21 (centres unmarked) [fluvastatin]
– | about 30% | CC[C@H](C)C(=O)O[C@H]1C[C@@H](C)C=C2C=C[C@H](C)[C@H](CC[C@@H]3C[C@@H](O)CC(=O)O3)[C@H]21 [lovastatin]
